Consider 26 compounds from patent US20110166121A1 (LG LIFE SCIENCES LTD., priority 2008, published 2011).

pIC50: −log10 of the molar value.

T1 sequence (Q9H244 whole entry): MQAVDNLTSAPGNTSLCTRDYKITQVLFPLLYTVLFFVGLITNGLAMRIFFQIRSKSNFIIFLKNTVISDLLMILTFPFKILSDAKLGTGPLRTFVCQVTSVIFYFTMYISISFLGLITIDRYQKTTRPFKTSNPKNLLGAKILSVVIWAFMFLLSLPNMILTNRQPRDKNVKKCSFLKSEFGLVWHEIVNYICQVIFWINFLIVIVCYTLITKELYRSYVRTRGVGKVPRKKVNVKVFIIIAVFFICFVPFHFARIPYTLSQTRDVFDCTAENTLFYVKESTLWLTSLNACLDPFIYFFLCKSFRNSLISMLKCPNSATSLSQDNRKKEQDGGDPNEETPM

The first experiment addresses T1, Human P2Y12 receptor (Homo sapiens, UniProt Q9H244).
T1 construct: expressed in transfected cells; host or cells: HEK cells
The experiment in a line: Human P2Y12 receptor cell membrane binding assay with [3H] 2-Mes-ADP. The conditions noted are these: 1 nM [3H] 2-Mes-ADP, membranes of HEK cells expressing P2Y12 receptor; read-out: Binding activity (IC50). The protocol: Human P2Y12 Receptor Cell Membrane Binding Assay with [^3H] 2-Mes-ADP
Whether test compounds bind to P2Y12 receptor is measured by [3H]-2MesADP binding in HEK cells expressing P2Y12 receptor. The efficacy according to the amount of test compound can be known through the above test, competitive binding test to P2Y12 receptor, in which the binding material (2-Mes-ADP) is labeled with radioactivity isotope and then the extent of inhibition against the binding of radioactively labeled material is measured.
Preparation of P2Y12 Membrane Protein Fraction
Harvested P2Y12 cells were resuspended with Hypotonic buffer (10 mM HEPES, 10 mM NaCl, 1 mM EDTA, 1 mM EGTA pH 7.4) containing protease inhibitor cocktail. Following the incubation on ice for 15 min, cells were homogenized on ice (Glass/Teflon homogenizer; 1,000 rpm, 10 strokes). The supernant was taken from centrifugation at 500×g for 15 min and then recentrifuged the supernant at 30,000 rpm for 30 min. The membrane pellet was adjusted to 1 mg/mL concentration and stored at −80° C.
P2Y12 Receptor Cell Membrane Binding Assay with [3H] 2-Mes-ADP
The volume of 100 μL of 200 μg membrane protein was aliquoted into 96 well plate. 50 μL volume of test compounds and [^3H] 2-Mes-ADP (final: 1 nM) were added into each well. The total reaction of 0.2 ml/well was incubated for 1 hour at R.T. The reaction was terminated by filtration through GF/B filter using a 96-well cell harvester. […] Radioactivity bound to P2Y12 receptor membrane was counted in a scintillation counter. Total binding was determined with CPM of test group having no compound and non-specific binding was determined with CPM of test group containing 10 μM 2-Mes-ADP. Binding inhibition percent was calculated as follows: [100−(specific binding in the presence of test material/specific binding in the absence of test material×100)].
As to `CCc1cc2c(N3CCn4c(nnc4C(F)(F)C(F)(F)F)C3)nc(NCC(O)CO)nc2s1` (centres unmarked) [Example 6-2, 3-[6-Ethyl-4-(3-pentafluoroethyl-5,6-dihydro-8H-[1,2,4]triazolo[4,3-a]pyrazin-7-yl)-thieno[2,3-d]pyrimidin-2-ylamino]-propane-1,2-diol], the pIC50 is 5.92.

For the compound `CCCc1cc2c(N3CCn4c(nnc4C(F)(F)F)C3)nc(OC3Cc4ccccc4C3)nc2s1` [Example 3-22, 7-[2-(Indan-2-yloxy)-6-propyl-thieno[2,3-d]pyrimidin-4-yl]-3-trifluoromethyl-5,6,7,8-tetrahydro-[1,2,4]triazolo[4,3-a]pyrazine], the negative logarithm of the IC50 (pIC50) is 6.89.

Regarding `CCc1cc2c(N3CCn4c(nnc4C(F)(F)F)C3)nc(CN3CC[C@@H](O)C3)nc2s1` [Example 4-20, (R)-1-[6-Ethyl-4-(3-trifluoromethyl-5,6-dihydro-8H-[1,2,4]triazolo[4,3-a]pyrazin-7-yl)thieno[2,3-d]pyrimidin-2-ylmethyl]pyrrolidin-3-ol], the negative logarithm of the IC50 (pIC50) was 5.38.

For the compound `CCc1cc2c(N3CCc4ccccc4C3)nc(N3CCNC(=O)C3)nc2s1` [Example 6-27, 4-[4-(3,4-Dihydro-1H-isoquinolin-2-yl)-6-ethyl-thieno[2,3-d]pyrimidin-2-yl]-piperazin-2-one], the pIC50 was 5.00.

For `CCc1cc2c(N3CCn4c(nnc4C(F)(F)F)C3)nc(N[C@@H]3C[C@H](OCCO)[C@@H](O)[C@H]3O)nc2s1` [Example 2-4, (1S,2S,3R,5S)-3-[6-Ethyl-4-(3-trifluoromethyl-5,6-dihydro-8H-[1,2,4]triazolo[4,3-a]pyrazin-7-yl)-thieno[2,3-d]pyrimidin-2-ylamino]-5-(2-hydroxy-ethoxy)-cyclopentane-1,2-diol], the pIC50 was 5.05.

`CCc1nc2c(N3CCn4c(nnc4C(F)(F)F)C3)nc(N3CCN(C)CC3)nc2s1` [Example 5-3, 2-Ethyl-5-(4-methyl-piperazin-1-yl)-7-(3-trifluoromethyl-5,6-dihydro-8H-[1,2,4]triazolo[4,3-a]pyrazin-7-yl)-thiazolo[5,4-d]pyrimidine]: the pIC50 is 5.94.

Take `CCCc1cc2c(N3CCn4c(nnc4C(F)(F)F)C3)nc(C(=O)OCC)nc2s1` [Example 4-1, 6-Propyl-4-(3-trifluoromethyl-5,6-dihydro-8H-[1,2,4]triazolo[4,3-a]pyrazin-7-yl)thieno[2,3-d]pyrimidine-2-carboxylic acid ethyl ester]: the pIC50 is 6.62.

Consider `CCCc1cc2c(N3CCn4c(nnc4C(F)(F)F)C3)nc(Nc3nc(C(=O)OCC)cs3)nc2s1` [Example 1-131, 2-[6-Propyl-4-(3-trifluoromethyl-5,6-dihydro-8H-[1,2,4]triazolo[4,3-a]pyrazin-7-yl)thieno[2,3-d]pyrimidin-2-ylamino]thiazole-4-carboxylic acid ethyl ester], for which the pIC50 was 5.71.

With `CCc1cc2c(N3CCn4c(nnc4C(F)(F)F)C3)nc(NCCN)nc2s1` [Example 2-8, N*1*-[6-Ethyl-4-(3-trifluoromethyl-5,6-dihydro-8H-[1,2,4]triazolo[4,3-a]pyrazin-7-yl)-thieno[2,3-d]pyrimidin-2-yl]-ethane-1,2-diamine], the pIC50 was 5.64.

Regarding `CCc1cc2c(N3CCn4c(nnc4C(F)(F)C(F)(F)F)C3)nc(N3CCNC(=O)C3)nc2s1` [Example 6-1, 4-[6-Ethyl-4-(3-pentafluoroethyl-5,6-dihydro-8H-[1,2,4]triazolo[4,3-a]pyrazin-7-yl)-thieno[2,3-d]pyrimidin-2-yl]-piperazin-2-one], the pIC50 is 6.88.

For the compound `CCc1nc2c(N3CCn4c(nnc4C(F)(F)F)C3)nc(NCCO)nc2s1` [Example 5-2, 2-[2-Ethyl-7-(3-trifluoromethyl-5,6-dihydro-8H-[1,2,4]triazolo[4,3-a]pyrazin-7-yl)-thiazolo[5,4-d]pyrimidin-5-ylamino]-ethanol], the pIC50 was 5.63.

In the case of `CCc1cc2c(N3CCn4c(nnc4C(F)(F)F)C3)nc(C(=O)NCCO)nc2s1` [Example 4-5, 6-Ethyl-4-(3-trifluoromethyl-5,6-dihydro-8H-[1,2,4]triazolo[4,3-a]pyrazin-7-yl)thieno[2,3-d]pyrimidine-2-carboxylic acid (2-hydroxy-ethyl)amide], the pIC50 was 5.80.

Take `CCc1cc2c(N3CCn4c(nnc4C(F)(F)F)C3)nc(NCC(O)CO)nc2s1` (centres unmarked) [Example 2-3, 3-[6-Ethyl-4-(3-trifluoromethyl-5,6-dihydro-8H-[1,2,4]triazolo[4,3-a]pyrazin-7-yl)-thieno[2,3-d]pyrimidin-2-ylamino]-propane-1,2-diol]: the negative logarithm of the IC50 (pIC50) was 6.07.

For the compound `CCc1cc2c(N3CCc4c(nc(C)nc4C(F)(F)F)C3)nc(N3CCNC(=O)C3)nc2s1` [Example 6-34, 4-[6-Ethyl-4-(2-methyl-4-trifluoromethyl-5,8-dihydro-6H-pyrido[3,4-d]pyrimidin-7-yl)-thieno[2,3-d]pyrimidin-2-yl]-piperazin-2-one], the negative-log IC50 (pIC50) is 6.92.

Consider `CCc1cc2c(N3CCc4c(nc(-c5ccoc5)nc4C(F)(F)F)C3)nc(N3CCNC(=O)C3)nc2s1` [Example 6-39, 4-[6-Ethyl-4-(2-furan-3-yl-4-trifluoromethyl-5,8-dihydro-6H-pyrido[3,4-d]pyrimidin-7-yl)-thieno[2,3-d]pyrimidin-2-yl]-piperazin-2-one], for which the pIC50 was 5.82.

`CCc1cc2c(N3CCn4ccnc4C3)nc(N3CCNC(=O)C3)nc2s1` [Example 6-20, 4-[4-(5,6-Dihydro-8H-imidazo[1,2-a]pyrazin-7-yl)-6-ethyl-thieno[2,3-d]pyrimidin-2-yl]-piperazin-2-one]: the negative logarithm of the IC50 (pIC50) is 5.12.

As to `CCCc1cc2c(N3CCc4c(nc(C)nc4C(F)(F)F)C3)nc(N3CCNC(=O)C3)nc2s1` [Example 6-36, 4-[4-(2-Methyl-4-trifluoromethyl-5,8-dihydro-6H-pyrido[3,4-d]pyrimidin-7-yl)-6-propyl-thieno[2,3-d]pyrimidin-2-yl]-piperazin-2-one], the pIC50 was 6.19.

`CCc1cc2c(N3CCn4c(nnc4C(F)(F)F)C3)nc(NCC(=O)O)nc2s1` [Example 2-9, [6-Ethyl-4-(3-trifluoromethyl-5,6-dihydro-8H-[1,2,4]triazolo[4,3-a]pyrazin-7-yl)-thieno[2,3-d]pyrimidin-2-ylamino]-acetic acid]: the pIC50 is 5.66.

Turning to `CCc1cc2c(N3CCn4c(nnc4C(F)(F)F)C3)nc(OCC(O)CO)nc2s1` (centres unmarked) [Example 3-49, 3-[6-Ethyl-4-(3-trifluoromethyl-5,6-dihydro-8H-[1,2,4]triazolo[4,3-a]pyrazin-7-yl)-thieno[2,3-d]pyrimidin-2-yloxy]-propane-1,2-diol], the pIC50 is 6.39.

Regarding `CCc1cc2c(N3CCc4c(nc(C)nc4C(F)(F)F)C3)nc(OCC(O)CO)nc2s1` (centres unmarked) [Example 6-35, 3-[6-Ethyl-4-(2-methyl-4-trifluoromethyl-5,8-dihydro-6H-pyrido[3,4-d]pyrimidin-7-yl)-thieno[2,3-d]pyrimidin-2-yloxy]-propane-1,2-diol], the pIC50 was 5.64.

Take `CCc1cc2c(N3CCc4c(nc(-c5ccoc5)nc4C(F)(F)F)C3)nc(NCC(O)CO)nc2s1` (centres unmarked) [Example 6-40, 3-[6-Ethyl-4-(2-furan-3-yl-4-trifluoromethyl-5,8-dihydro-6H-pyrido[3,4-d]pyrimidin-7-yl)-thieno[2,3-d]pyrimidin-2-ylamino]-propane-1,2-diol]: the pIC50 is 5.71.

The same experiment, now with this note: 30 μM compound; 1 nM [3H] 2-Mes-ADP.
For the compound `CCc1cc2c(N3CCn4cnnc4C3)nc(OCC(O)CO)nc2s1` (centres unmarked) [Example 6-11, 3-[4-(5,6-Dihydro-8H-[1,2,4]triazolo[4,3-a]pyrazin-7-yl)-6-ethyl-thieno[2,3-d]pyrimidin-2-yloxy]-propane-1,2-diol], 30 µM produced 39.3% inhibition.

Turning to `CCc1cc2c(N3CCc4c([nH]n(C)c4=O)C3)nc(OCC(O)CO)nc2s1` (centres unmarked) [Example 6-42, 6-[2-(2,3-Dihydroxy-propoxy)-6-ethyl-thieno[2,3-d]pyrimidin-4-yl]-2-methyl-1,2,4,5,6,7-hexahydro-pyrazolo[3,4-c]pyridin-3-one], the inhibition at 30 µM was 26.4%.

For the compound `CCCc1cc2c(N3CCn4c(nnc4C(F)(F)F)C3)nc(Sc3ccccc3)nc2s1` [Example 3-52, 7-(2-Phenylsulfanyl-6-propyl-thieno[2,3-d]pyrimidin-4-yl)-3-trifluoromethyl-5,6,7,8-tetrahydro-[1,2,4]triazolo[4,3-a]pyrazine], the inhibition at 30 µM is 20%.

Compound `CCc1cc2c(N3CCc4c([nH]n(C)c4=O)C3)nc(N3CCNC(=O)C3)nc2s1` [Example 6-41, 6-[6-Ethyl-2-(3-oxo-piperazin-1-yl)-thieno[2,3-d]pyrimidin-4-yl]-2-methyl-1,2,4,5,6,7-hexahydro-pyrazolo[3,4-c]pyridin-3-one] came in with an inhibition at 30 µM of 23.6%.

On to `CCc1cc2c(N3CCc4[nH]ncc4C3)nc(OCC(O)CO)nc2s1` (centres unmarked) [Example 6-25, 3-[6-Ethyl-4-(1,4,6,7-tetrahydro-pyrazolo[4,3-c]pyridin-5-yl)-thieno[2,3-d]pyrimidin-2-yloxy]-propane-1,2-diol], for which 30 µM produced 38.6% inhibition.
